Target: MASP-2 CCP2-SP (Homo sapiens (Human), UniProt O00187)
Assay: MASP-2 co-crystallization, X-ray crystallography and structure analysis (H-bonds, van der Waals contacts);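 as to Ligand-pharmacophore element distance, pharmacophore element C2: distance from averaged pharmacophore element to bound ligand; missing value means element absent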;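 as to Ligand-pharmacophore element distance, pharmacophore element C3: distance from averaged pharmacophore element to bound ligand; missing value means element absent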;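 as to Ligand-pharmacophore element distance, pharmacophore element C4: distance from averaged pharmacophore element to bound ligand; missing value means element absent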;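 as to Ligand-pharmacophore element distance, pharmacophore element C5: distance from averaged pharmacophore element to bound ligand; missing value means element absent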
Parameters: van der Waals contact distance, MASP-2 HIS 483 atom CD2 / van der Waals contact distance, MASP-2 HIS 483 atom NE2 / van der Waals contact distance, SER 654 C to compound atom / van der Waals contact distance, SER 654 O to compound atom / van der Waals contact distance, TRP 655 C to compound atom / van der Waals contact distance, MASP-2 GLY 528 atom CA / van der Waals contact distance TRP 655 atom CZ3 / van der Waals contact distance TRP 655 atom N / van der Waals contact distance TRP 655 atom CE3 / van der Waals contact distance GLY 656 atom C / van der Waals contact distance GLY 656 atom CA / van der Waals contact distance GLY 656 atom O / van der Waals contact distance, MASP-2 TYR 607 atom CD1 / van der Waals contact distance, MASP-2 PRO 606 atom O / d(C3,CA1) / d(CA1,N1)2 / d(H4,O1) / d(H4,O2) / d(O1,O2) / d(CA1,O2) / d(CA6,O1) / d(CA6,O2) / d(CA1,C5) / d(O2,H3) / d(N2,C2) / d(CA5,N2) / d(N2,C4) / d(N2,C6) / d(N2,CA3) / d(N2,O3) / d(O4,H2): unit not given beside the values
Conditions: for Ligand-pharmacophore element distance, pharmacophore element C2 / Ligand-pharmacophore element distance, pharmacophore element C3 / Ligand-pharmacophore element distance, pharmacophore element C4 / Ligand-pharmacophore element distance, pharmacophore element C5 / Ligand-pharmacophore element distance, pharmacophore element C6 / Ligand-pharmacophore element distance, pharmacophore element C7 / Ligand-pharmacophore element distance, pharmacophore element CA1 / Ligand-pharmacophore element distance, pharmacophore element CA2 / Ligand-pharmacophore element distance, pharmacophore element CA3 / Ligand-pharmacophore element distance, pharmacophore element CA4 / Ligand-pharmacophore element distance, pharmacophore element CA5 / Ligand-pharmacophore element distance, pharmacophore element CA6: Table A4-1
Outline: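 Human MASP-2 CCP2-SP (± 6His) expressed in E. coli and crystallized; crystals soaked in crystallization solution containing inhibitor, cryoprotected with 20% glycerol or frozen directly. Synchrotron data at 1.0 wavelength; molecular replacement from 1Q3X, partial refinement; one ligand pose analyzed; LigPlot+ contacts may include H-bonds.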

[1] = Table A5-1 pharmacophore: distance between elements, S2/S1 region
[2] = Table A5-2 pharmacophore distance, S3/S4 region
[3] = Table A7-1, between pharmacophore elements of the bound compound
[4] = Table A8-6, nearest protein atom in cell to the left

Sequence of MASP-2 CCP2-SP (O00187 445-686): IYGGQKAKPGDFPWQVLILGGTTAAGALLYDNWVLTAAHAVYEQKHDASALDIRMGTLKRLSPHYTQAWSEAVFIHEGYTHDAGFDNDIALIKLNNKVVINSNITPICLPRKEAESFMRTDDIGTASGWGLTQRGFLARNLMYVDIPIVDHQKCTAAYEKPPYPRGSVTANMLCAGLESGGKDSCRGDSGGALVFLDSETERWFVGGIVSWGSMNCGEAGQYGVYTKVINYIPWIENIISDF
Sequence of MASP-2 CCP2-SP (O00187 364-432 partner): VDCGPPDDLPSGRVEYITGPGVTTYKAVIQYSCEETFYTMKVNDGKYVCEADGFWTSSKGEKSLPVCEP

With `C[C@H](NC(=O)[C@H]1C[C@@H](c2ccccc2)CCN1)C(=O)NCc1cc(Cl)ccc1O.Cl` [1078_1] the “Ligand-pharmacophore element distance, pharmacophore element C2” value was 0.69, the “Ligand-pharmacophore element distance, pharmacophore element C3” value was 0 and the “Ligand-pharmacophore element distance, pharmacophore element C4” value was 0. The “Ligand-pharmacophore element distance, pharmacophore element C5” value was 0.4, the “Ligand-pharmacophore element distance, pharmacophore element C6” value was 0 and the “Ligand-pharmacophore element distance, pharmacophore element C7” value was 0. The “Ligand-pharmacophore element distance, pharmacophore element CA1” value was 1.58, the “Ligand-pharmacophore element distance, pharmacophore element CA2” value was 0.48 and the “Ligand-pharmacophore element distance, pharmacophore element CA3” value was 0. The “Ligand-pharmacophore element distance, pharmacophore element CA4” value was 0, the “Ligand-pharmacophore element distance, pharmacophore element CA5” value was 0 and the “Ligand-pharmacophore element distance, pharmacophore element CA6” value was 0. For the same compound, the “d(CA1,C5)” value [1] was 3.12, the “d(CA1,O1)” value [1] was 4.56 and the “d(CA1,O2)” value [1] was 4.72. The “d(CA1,O4)” value [1] was 2.75, the “d(H4,O1)” value [1] was 2.29 and the “d(H4,O2)” value [1] was 2.61. For the same compound, the “d(O1,O2)” value [1] was 3.05, the “d(O4,H2)” value [1] was 0.97 and the “d(N2,C2)” value [2] was 1.48. For the same compound, the “d(N2,CA2)” value [2] was 5.74, the “d(O2,H3)” value [2] was 2.93 and the “d(O2,N2)” value [2] was 2.77. For the same compound, the “a(C5, CA1, O1)” value (Table A6-1 pharmacophore angle) was 160.22, the “a(CA1, O1, O2)” value (Table A6-1 pharmacophore angle) was 111.94 and the “a(CA1, O4, H2)” value (Table A6-1 pharmacophore angle) was 126.79. The “a(O1, CA1, O4)” value (Table A6-1 pharmacophore angle) was 68.03, the “a(O1, O2, H4)” value (Table A6-1 pharmacophore angle) was 103.21 and the “a(O1, O2, H3)” value (Table A6-2 pharmacophore angle) was 141.96. The “a(O1, O2, N2)” value (Table A6-2 pharmacophore angle) was 145.93, the “a(O2, N2, C2)” value (Table A6-2 pharmacophore angle) was 121.70 and the “a(O2, N2, CA2)” value (Table A6-2 pharmacophore angle) was 154.68. The “Pharmacophore torsion angle a(C5, CA1, O1, H4)” value [3] was 25.08, the “Pharmacophore torsion angle a(H4, O1, O2, H3)” value [3] was −119.94 and the “Pharmacophore torsion angle a(H4, O1, O2, N2)” value [3] was −112.97. The “Pharmacophore torsion angle a(O1, H4, O2, CA1)” value [3] was −60.12, the “Pharmacophore torsion angle a(O1, O2, N2, C2)” value [3] was 138.25 and the “Pharmacophore torsion angle a(O1, O2, N2, CA2)” value (Table A7-2, between pharmacophore elements of the bound compound) was 140.46. The “Pharmacophore protein distance to MET_658 (first MET_658 column)” value (Table A8-6, 6th residue column, nearest protein atom in cell to the left) was 2.97, the “Pharmacophore protein distance to MET_658 (second MET_658 column)” value (Table A8-6, 9th residue column, nearest protein atom in cell to the left) was 3.50 and the “Pharmacophore protein distance to GLY_528” value [4] was 3.66. For the same compound, the “Pharmacophore protein distance to PHE_529” value [4] was 3.30, the “Pharmacophore protein distance to PRO_608” value [4] was 3.85 and the “Pharmacophore protein distance to SER_611” value [4] was 2.41. For the same compound, the “Pharmacophore protein distance to TRP_655” value (Table A8-6, pharmacophore elements C6, CA3, O3, H1, nearest protein atom in cell to the left) was 3.68.

In the case of `C[C@H](NC(=O)[C@H]1C[C@@H](c2ccccc2)CCN1)C(=O)NCc1cc(Cl)ccc1O.Cl` [1078_6], the “Ligand-pharmacophore element distance, pharmacophore element C2” value was 1.09, the “Ligand-pharmacophore element distance, pharmacophore element C3” value was 0 and the “Ligand-pharmacophore element distance, pharmacophore element C4” value was 0. The “Ligand-pharmacophore element distance, pharmacophore element C5” value was 0.48, the “Ligand-pharmacophore element distance, pharmacophore element C6” value was 0 and the “Ligand-pharmacophore element distance, pharmacophore element C7” value was 0. The “Ligand-pharmacophore element distance, pharmacophore element CA1” value was 1.31, the “Ligand-pharmacophore element distance, pharmacophore element CA2” value was 0.65 and the “Ligand-pharmacophore element distance, pharmacophore element CA3” value was 0. The “Ligand-pharmacophore element distance, pharmacophore element CA4” value was 0, the “Ligand-pharmacophore element distance, pharmacophore element CA5” value was 0 and the “Ligand-pharmacophore element distance, pharmacophore element CA6” value was 0. The “d(CA1,C5)” value [1] was 3.11, the “d(CA1,O1)” value [1] was 5.90 and the “d(CA1,O4)” value [1] was 2.75. For the same compound, the “d(H4,O1)” value [1] was 2.75, the “d(O4,H2)” value [1] was 0.98 and the “d(N2,C2)” value [2] was 1.49. For the same compound, the “d(N2,CA2)” value [2] was 5.49, the “a(C5, CA1, O1)” value (Table A6-1 pharmacophore angle) was 152.72 and the “a(CA1, O4, H2)” value (Table A6-1 pharmacophore angle) was 126.69. The “a(O1, CA1, O4)” value (Table A6-1 pharmacophore angle) was 67.49 and the “Pharmacophore torsion angle a(C5, CA1, O1, H4)” value [3] was −22.50.

From patent US12195427B2, “MASP-2 inhibitors and methods of use” (priority 2018, dated 2025)
